Assay results published in paper PMC8221581, “Functional Characterization of Olfactory Proteins Involved in Chemoreception of Galeruca daurica” (Frontiers in Physiology, 2021).
Like-named read-outs stand apart in the source and are kept apart here.

How the values were obtained:
GdauCSP4 = GdauCSP4 (Galeruca daurica, UniProt A0A1W6GWH1); assay: Fluorescence competitive binding assay (1-NPN reporter), recombinant GdauCSP4; details: for Ki: Ki = IC50/(1 + [1-NPN]/K1-NPN)
Method: (§1) Fluorescence-binding assays were performed using a 970CRT spectrofluorophotometer (Hitachi, Japan). Instrument parameters were set as follows: Excitation slit of 10 nm, emission slit of 10 nm, sensitivity of 2 s, excitation wavelength of 337 nm, and scanning emission wavelength range of 350–700 nm. In order to measure the affinity of the fluorescent ligand 1-NPN (N-phenyl-1-naphthylamine) with the six recombinant proteins, the recombinant proteins were diluted to 2 μM in 50 mM Tris–HCl (pH 7.4) and added into a 1-cm light path quartz cuvette. Fluorescence values were recorded after the 1-NPN solution was added successively. The dissociation constant K1–NPN was calculated using GraphPad Prism 7.0 software.
(§2) Thirteen main volatiles of the host plant (A. mongolicum) were selected as competing ligands for the fluorescence competitive binding assays (Table 1). All ligands were purchased from Sigma-Aldrich (St. Louis, MO, United States). These ligands were dissolved in methanol (HPLC grade) to make stock solutions of 1 mM, which were added into a 2-μM protein solution with 1-NPN saturated. […] Three duplications were used in the binding experiment. The curves were fitted using Scatchard plots. The dissociation constants (Ki) of the competitive ligands were calculated based on the equation: Ki = IC50/(1 + [1−NPN]/K1−NPN), where IC50 is the concentration of a competitor that results in a 50% reduction of the initial fluorescence intensity, and [1-NPN] and K1–NPN are the free concentration of 1-NPN and the dissociation constant of the recombinant protein/1-NPN complex, respectively ([Campanacci et al., 2001]).

GdauCSP5 = GdauCSP5 (Galeruca daurica, UniProt A0A1W6GWH8); assay: Fluorescence competitive binding assay (1-NPN reporter), recombinant GdauCSP5; details: for Ki: Ki = IC50/(1 + [1-NPN]/K1-NPN)
Method: as §1, §2

G. daurica antennae [1] = assay: Electroantennogram (EAG) of dsRNA-CSP5-injected adults to host plant volatiles; parameters: species or system Galeruca daurica; details: dsRNA-CSP5-injected females vs dsRNA-GFP control; 10 μL of 1 mol/L odorant
Method: (§3) Two microliters of dsRNA (1,000 μg/μL) was injected into the intersegmental membrane between the fourth and fifth abdominal segments of 3-day-old adult females and males using a microinjector (Shimadzu, Japan). All the treated insects, including dsRNA-OBP15-injected, dsRNA-CSP5-injected, and dsRNA-GFP-injected, were reared under natural temperature conditions in the lab. Samples were taken 48 h later for interference efficiency measurement and electroantennogram analysis.
Electroantennograms were conducted to record the antennal responses of dsRNA-OBP15-injected, dsRNA-CSP5-injected, and dsRNA-GFP-injected to 12 plant volatiles. These odorants were dissolved in dichloromethane (HPLC grade) to make stock solutions of 1 mol/L, and dichloromethane alone served as solvent control. The antennae were cut off at the base, and the ends were removed then attached to the electrode with electrode gel. Filter paper strips (1 cm × 0.5 cm) were loaded with 10 μL of each chemical solution and then inserted into a Pasteur pipette. The tube was connected to an air stimulus controller (CS-55; SynTech). The signals were detected by a high-impedance amplifier (IDAC-2; SynTech) and analyzed using SynTech software (GC-EAD 2014 v1.2.5). The pulse duration time was 0.2 s with a stimulation interval of 30 s, and each compound was tested three times for each antenna. It was taken as the absolute value of the difference value between the maximum amplitude achieved by the odor stimulus and the baseline level. Each antenna was stimulated three times. All EAG results are presented as the mean EAG values from six female or male antennae.
The binding assay curve was fitted by GraphPad Prism 7.0, using the least squares (ordinary) fit of the second-order polynomial. Data from qPCR and EAG assays were analyzed using SPSS Statistics 17.0. T-test (P < 0.05) was used to analyze the differences among the groups.

GdauOBP10 = GdauOBP10 (Galeruca daurica, UniProt A0A1U9W4Z5); assay: Fluorescence competitive binding assay (1-NPN reporter), recombinant GdauOBP10; details: for Ki: Ki = IC50/(1 + [1-NPN]/K1-NPN)
Method: as §1, §2

GdauOBP15 = GdauOBP15 (Galeruca daurica, UniProt A0A1U9W4Z9); assay: Fluorescence competitive binding assay (1-NPN reporter), recombinant GdauOBP15; details: for Ki: Ki = IC50/(1 + [1-NPN]/K1-NPN)
Method: as §1, §2

GdauOBP1 = GdauOBP1 (Galeruca daurica, UniProt A0A1U9W4Y5); assay: Fluorescence competitive binding assay (1-NPN reporter), recombinant GdauOBP1; details: for Ki: Ki = IC50/(1 + [1-NPN]/K1-NPN)
Method: as §1, §2

GdauOBP6 = GdauOBP6 (Galeruca daurica, UniProt A0A1U9W4Z8); assay: Fluorescence competitive binding assay (1-NPN reporter), recombinant GdauOBP6; details: for Ki: Ki = IC50/(1 + [1-NPN]/K1-NPN)
Method: as §1, §2

G. daurica antennae [2] = assay: Electroantennogram (EAG) of dsRNA-OBP15-injected adults to host plant volatiles; parameters: species or system Galeruca daurica; details: dsRNA-OBP15-injected females vs dsRNA-GFP control; 10 μL of 1 mol/L odorant
Method: as §3
Electroantennograms were conducted to record the antennal responses of dsRNA-OBP15-injected, dsRNA-CSP5-injected, and dsRNA-GFP-injected to 12 plant volatiles. These odorants were dissolved in dichloromethane (HPLC grade) to make stock solutions of 1 mol/L, and dichloromethane alone served as solvent control. The antennae were cut off at the base, and the ends were removed then attached to the electrode with electrode gel. Filter paper strips (1 cm × 0.5 cm) were loaded with 10 μL of each chemical solution and then inserted into a Pasteur pipette. […] The signals were detected by a high-impedance amplifier (IDAC-2; SynTech) and analyzed using SynTech software (GC-EAD 2014 v1.2.5). […]
The binding assay curve was fitted by GraphPad Prism 7.0, using the least squares (ordinary) fit of the second-order polynomial. Data from qPCR and EAG assays were analyzed using SPSS Statistics 17.0. […]

[3] = GdauCSP4, 2 μM protein, 1-NPN saturated, 50 mM Tris–HCl pH 7.4, read-out: IC50
[4] = GdauCSP5, 2 μM protein, 1-NPN saturated, 50 mM Tris–HCl pH 7.4, read-out: IC50
[5] = GdauOBP10, 2 μM protein, 1-NPN saturated, 50 mM Tris–HCl pH 7.4, read-out: IC50
[6] = GdauOBP15, 2 μM protein, 1-NPN saturated, 50 mM Tris–HCl pH 7.4, read-out: IC50
[7] = GdauOBP1, 2 μM protein, 1-NPN saturated, 50 mM Tris–HCl pH 7.4, read-out: IC50
[8] = GdauOBP6, 2 μM protein, 1-NPN saturated, 50 mM Tris–HCl pH 7.4, read-out: IC50

GdauOBP1, sequence (A0A1U9W4Y5 entry or part of it): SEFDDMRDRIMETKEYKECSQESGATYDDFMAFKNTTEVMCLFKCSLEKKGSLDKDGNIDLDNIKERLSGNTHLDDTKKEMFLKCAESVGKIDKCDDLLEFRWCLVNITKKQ
GdauOBP6, sequence (A0A1U9W4Z8 entry or part of it): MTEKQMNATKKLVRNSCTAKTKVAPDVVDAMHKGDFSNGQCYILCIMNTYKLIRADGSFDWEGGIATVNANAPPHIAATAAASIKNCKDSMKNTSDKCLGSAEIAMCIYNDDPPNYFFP
GdauCSP5, sequence (A0A1W6GWH8 entry or part of it): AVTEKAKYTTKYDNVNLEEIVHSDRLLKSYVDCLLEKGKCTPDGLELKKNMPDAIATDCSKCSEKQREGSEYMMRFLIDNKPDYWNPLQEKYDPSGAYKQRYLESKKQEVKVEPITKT
GdauCSP4, sequence (A0A1W6GWH1 entry or part of it): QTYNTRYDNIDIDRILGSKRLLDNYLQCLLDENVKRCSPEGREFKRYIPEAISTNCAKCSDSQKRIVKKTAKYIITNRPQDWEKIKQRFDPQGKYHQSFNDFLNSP
GdauOBP15, sequence (A0A1U9W4Z9 entry or part of it): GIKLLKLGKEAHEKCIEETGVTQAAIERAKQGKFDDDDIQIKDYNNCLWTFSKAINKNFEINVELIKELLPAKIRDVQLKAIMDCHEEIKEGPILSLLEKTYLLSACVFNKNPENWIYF
GdauOBP10, sequence (A0A1U9W4Z5 entry or part of it): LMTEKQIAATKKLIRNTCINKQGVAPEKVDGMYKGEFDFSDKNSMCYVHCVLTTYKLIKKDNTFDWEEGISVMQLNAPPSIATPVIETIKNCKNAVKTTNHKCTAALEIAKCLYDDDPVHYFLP

SMILES | IC50 (GdauCSP4; [3]) | Ki (GdauCSP4; GdauCSP4) | IC50 (GdauCSP5; [4]) | Ki (GdauCSP5; GdauCSP5) | EAG response compared to the control (G. daurica antennae [1]) | IC50 (GdauOBP10; [5]) | Ki (GdauOBP10; GdauOBP10) | IC50 (GdauOBP15; [6]) | Ki (GdauOBP15; GdauOBP15) | IC50 (GdauOBP1; [7]) | Ki (GdauOBP1; GdauOBP1) | IC50 (GdauOBP6; [8]) | Ki (GdauOBP6; GdauOBP6) | IC50 (GdauCSP4) | IC50 (GdauCSP5) | IC50 (GdauOBP10) | IC50 (GdauOBP15) | IC50 (GdauOBP1) | IC50 (GdauOBP6) | other results
C1=CC=CCC=C1 [1,3,5-cycloheptatriene, 1,3,5-Cycloheptatriene] | 23.4 µM | 21.2 µM | 45.5 µM | 33.5 µM | significantly lower | 59.9 µM | 46.2 µM | 51.7 µM | 45.6 µM | 63 µM | 53.8 µM | 80.5 µM | 69.2 µM |  |  |  |  |  |  | 
C1CSCSC1 [1,3-dithiane] |  |  |  |  | significantly lower |  |  |  |  |  |  |  |  | 18.5 µM | 50 µM | 59.5 µM | 57.2 µM | 70.6 µM | 36.7 µM | 
c1ccc(Nc2cccc3ccccc23)cc1 [1-NPN, N-phenyl-1-naphthylamine, reference compound] |  |  |  |  |  |  |  |  |  |  |  |  |  |  |  |  |  |  |  | Kd (GdauCSP4): 18.9 µM; Kd (GdauCSP5): 5.34 µM; Kd (GdauOBP10): 6.54 µM; Kd (GdauOBP15): 14.6 µM; Kd (GdauOBP1): 11.4 µM; Kd (GdauOBP6): 11.8 µM
CCCC=CC=O [2-hexenal, 2-Hexenal] |  |  |  |  | significantly lower |  |  |  |  |  |  |  |  | 17.5 µM | 34.4 µM | 85.5 µM | 41.7 µM | 95.9 µM | 33.9 µM | EAG response compared to the control (G. daurica antennae [2]): reduced significantly
CCC/C=C\CO [(Z)-2-hexen-1-ol, (Z)-2-Hexen-1-ol] |  |  |  |  |  |  |  |  |  |  |  |  |  | 50 µM |  | 95.6 µM | 76 µM | 86.4 µM | 33 µM | 
C=CCSSCC=C [Diallyl disulfide] |  |  |  |  |  |  |  |  |  |  |  |  |  | 23.5 µM | 61.6 µM |  | 42.3 µM | 97.1 µM | 72.1 µM | 
C=CCSCC=C [Diallyl sulfide] | 43.8 µM | 39.7 µM | 72.2 µM | 53.1 µM |  | 77.8 µM | 60.1 µM | 48.1 µM | 42.4 µM |  |  | 55 µM | 47.3 µM |  |  |  |  |  |  | 
CSSC [Dimethyl disulfide] | 23.1 µM | 21 µM | 36 µM | 26.5 µM |  | 61.9 µM | 47.8 µM | 26.2 µM | 23.1 µM | 64.9 µM | 55.4 µM | 29.9 µM | 25.7 µM |  |  |  |  |  |  | 
CSSSC [Dimethyl trisulfide] | 16.6 µM | 15 µM | 53.7 µM | 39.5 µM | significantly lower | 67.4 µM | 52.1 µM | 56.7 µM | 50 µM | 63.2 µM | 54 µM | 44.5 µM | 38.2 µM |  |  |  |  |  |  | 
CCCCCC=O [Hexanal] |  |  |  |  | significantly lower |  |  |  |  |  |  |  |  | 15.4 µM | 61.4 µM | 52 µM | 68.8 µM | 70.8 µM | 32.3 µM | 
COC(=O)c1ccccc1 [Methyl benzoate] |  |  |  |  | significantly lower |  |  |  |  |  |  |  |  | 13.3 µM | 44.3 µM | 73.9 µM | 35.9 µM | 65.4 µM | 36.4 µM | 
C=CC(=C)CCC=C(C)C [Myrcene] |  |  | 84.2 µM | 61.9 µM | significantly lower |  |  |  |  | 82.6 µM | 70.6 µM | 68.7 µM | 59 µM |  |  |  |  |  |  | 
Cc1ccc(C)cc1 [p-xylene, p-Xylene] |  |  |  |  | significantly lower |  |  |  |  |  |  |  |  | 19.7 µM | 55.7 µM | 58 µM | 49.9 µM | 84.7 µM | 72.5 µM | 
